A value given as a limit tells only on which side of the number the result lay.

The first experiment deals with Sphingosine 1-phosphate receptor 1 (Homo sapiens, UniProt P21453). As to the kind of experiment: potentiators of S1P1 agonist response, dose response, cell-based, potentiator mode, 60K MLSMR set (AID 466).
Chain of Sphingosine 1-phosphate receptor 1 (P21453 whole entry): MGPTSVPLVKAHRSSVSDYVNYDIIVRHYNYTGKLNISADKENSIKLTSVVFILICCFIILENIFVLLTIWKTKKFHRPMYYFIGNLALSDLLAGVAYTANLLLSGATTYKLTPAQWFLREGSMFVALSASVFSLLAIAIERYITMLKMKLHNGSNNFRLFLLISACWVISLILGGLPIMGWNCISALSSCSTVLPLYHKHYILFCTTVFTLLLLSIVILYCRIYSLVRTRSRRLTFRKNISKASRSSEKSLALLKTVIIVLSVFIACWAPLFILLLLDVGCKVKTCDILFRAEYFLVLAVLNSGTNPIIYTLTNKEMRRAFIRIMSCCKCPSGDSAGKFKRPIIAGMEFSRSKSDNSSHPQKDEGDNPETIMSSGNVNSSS
Conditions: not given
In general, EC50 refers to the concentration needed to bring the measured effect to its halfway point. For `CN(C)S(=O)(=O)c1ccc(C(=O)Nc2nc(-c3cccs3)cs2)cc1` [4-(dimethylsulfamoyl)-N-(4-thiophen-2-yl-1,3-thiazol-2-yl)benzamide], the EC50 was greater than 10 µM.
Still for that read-out and setting: next, `CCOc1ccc(S(=O)(=O)n2cnc3cc(C)c(C)cc32)cc1` [1-(4-Ethoxy-benzenesulfonyl)-5,6-dimethyl-1H-benzoimidazole]: 8.29 µM; `C=C(C)COc1ccc(-c2nc(N)nc(C)c2Oc2ccccc2OC)c(O)c1` [(6E)-6-[2-amino-5-(2-methoxyphenoxy)-6-methyl-1H-pyrimidin-4-ylidene]-3-(2-methylallyloxy)cyclohexa-2,4-dien-1-one]: 2.79 µM.
For `CCOc1nc(C)ccc1-c1noc(-c2ccncc2)n1` [2-ethoxy-6-methyl-3-[5-(4-pyridinyl)-1,2,4-oxadiazol-3-yl]pyridine], the EC50 came out at 6.59 µM.
As for `O=C(CSc1nnc(-c2c[nH]c3ccccc23)o1)N(Cc1ccccc1)c1ccc(F)cc1`, the EC50 came out at 0.837 µM.
On the same count and under the same terms, the same measure for `COc1ccccc1-n1nnnc1S(=O)(=O)Cc1ccc(Cl)cc1` [5-(4-chlorobenzyl)sulfonyl-1-(2-methoxyphenyl)tetrazole]: 3.77 µM.
Turning to `CCOC(=O)C1C(=O)C=C(c2ccc(OC)cc2)CC1c1ccco1` (stereo not given) [6-(2-furanyl)-4-(4-methoxyphenyl)-2-oxo-1-cyclohex-3-enecarboxylic acid ethyl ester], the EC50 is 3.37 µM.
On the same count and under the same terms, the same measure for `CCOc1ccc(-c2nc(CSCC(=O)N3CCN(c4cccc(OC)c4)CC3)c(C)o2)cc1` [1-[4-(3-methoxyphenyl)piperazino]-2-[(5-methyl-2-p-phenetyl-oxazol-4-yl)methylthio]ethanone]: 7.42 µM.
`OC(c1cccc(OCc2ccccc2)c1)c1nnc(-c2ccccc2)o1` (stereo not given) [(3-benzoxyphenyl)-(5-phenyl-1,3,4-oxadiazol-2-yl)methanol]: the EC50 is 2.65 µM.
As to `CCCS(=O)(=O)c1nnnn1-c1cccc(OC)c1` [1-(3-methoxyphenyl)-5-(propylsulfonyl)-1H-tetrazole], the EC50 was found to be 3.19 µM.
On the same count and under the same terms, the same measure for `COc1cccc(N2CCN(c3ncnc4c3[nH]c3ccccc34)CC2C)c1` (stereo not given) [4-[4-(3-methoxyphenyl)-3-methyl-1-piperazinyl]-5H-pyrimido[5,4-b]indole]: 3.57 µM.
With `Clc1ccc(CSc2nnc(-c3ccncc3)o2)cc1` [2-[(4-chlorobenzyl)thio]-5-(4-pyridyl)-1,3,4-oxadiazole], the EC50 is 3.58 µM.
As to `c1csc(CCNc2ncnc3sc4c(c23)CCC4)c1` [7,8-dihydro-6H-cyclopenta[4,5]thieno[1,2-c]pyrimidin-1-yl-[2-(2-thienyl)ethyl]amine], the EC50 turned out to be 1.44 µM.
Regarding `O=C(Nc1ncc(Br)s1)C(Cc1ccccc1)n1cccc1` (stereo not given) [MLS000119027], the concentration for a half-maximal effect (EC50) was determined as 2.92 µM.
On the same count and under the same terms, the same measure for `O=c1c(-c2ccc3c(c2)OCCO3)c(C(F)(F)F)oc2cc(O)cc(O)c12` [3-(2,3-dihydro-1,4-benzodioxin-6-yl)-5,7-bis(oxidanyl)-2-(trifluoromethyl)chromen-4-one]: 3.83 µM; for `O=C(C1CCC1)N1CCc2cc(S(=O)(=O)Nc3ccc4c(c3)OCCO4)ccc21` [1-(cyclobutanecarbonyl)-N-(2,3-dihydro-1,4-benzodioxin-6-yl)-2,3-dihydroindole-5-sulfonamide]: greater than 30 µM.
Take `Cc1ccsc1C(=O)OCC(=O)c1cc(C)n(CC2CCCO2)c1C` (stereo not given) [3-methyl-2-thiophenecarboxylic acid [2-[2,5-dimethyl-1-(2-oxolanylmethyl)-3-pyrrolyl]-2-oxoethyl] ester]: the EC50 was determined as 8.31 µM.
Same read-out and setting: the same measure for `Cc1ccnc(SCC(=O)Nc2sc3c(c2C#N)CCCC3)n1` [MLS000077260]: 5.24 µM; for `CC(C)(C)OC(=O)N[C@@H](Cc1ccccc1)c1nnc(S(=O)(=O)Cc2cccc(F)c2)o1` [tert-butyl N-[(1S)-1-[5-[(3-fluorophenyl)methylsulfonyl]-1,3,4-oxadiazol-2-yl]-2-phenylethyl]carbamate]: 9.88 µM; for `Cn1c(=O)oc2cc(S(=O)(=O)N3CCCC(C(=O)N4CC=C(c5ccccc5)CC4)C3)ccc21` (stereo not given) [3-methyl-6-[3-(4-phenyl-3,6-dihydro-2H-pyridine-1-carbonyl)piperidin-1-yl]sulfonyl-1,3-benzoxazol-2-one]: 9.49 µM.
In the case of `Cc1ccccc1-c1nnc(SCc2ccccc2F)o1` [2-[(2-fluorobenzyl)thio]-5-(2-methylphenyl)-1,3,4-oxadiazole], the EC50 was determined as 1.27 µM.
On the same count and under the same terms, the same measure for `O=S(=O)(Nc1ccc2c(c1)OCCO2)c1ccc2oc3ccccc3c2c1` [MLS000051884]: 7.43 µM; for `CCc1ccc2oc(-c3cc(N)cc(C)c3O)nc2c1` [(6E)-4-amino-6-(5-ethyl-3H-1,3-benzoxazol-2-ylidene)-2-methyl-1-cyclohexa-2,4-dienone]: 11.6 µM; for `O=C(Nc1ccc(OC(F)F)c(Cl)c1)Nc1ccc2c(c1)OCO2` [1-(1,3-benzodioxol-5-yl)-3-[3-chloro-4-(difluoromethoxy)phenyl]urea]: 8.5 µM.
The same measure, in the same setting: next, `C=CCN1/C(=N/c2cccnc2)SCC1(O)c1ccc(C)cc1` (stereo not given) [(2E)-3-allyl-4-(4-methylphenyl)-2-(pyridin-3-ylimino)-1,3-thiazolidin-4-ol]: 7.92 µM; `COc1ccc(-c2cn3c(C)c(C(=O)Nc4ccncc4)sc3n2)cc1` [6-(4-methoxyphenyl)-3-methyl-N-(4-pyridyl)imidazo[2,1-b]thiazole-2-carboxamide]: greater than 10 µM; `COc1ccc(CCNc2c(C)c(C)nc3ncnn23)cc1` [(5,6-Dimethyl-[1,2,4]triazolo[1,5-a]pyrimidin-7-yl)-[2-(4-methoxy-phenyl)-ethyl]-amine]: 3.72 µM.
For `Cc1sc2ncnc(Sc3nnnn3-c3ccccc3)c2c1C` [5,6-dimethyl-4-(1-phenyltetrazol-5-yl)sulfanylthieno[2,3-d]pyrimidine], the EC50 is greater than 95 µM.
On the same count and under the same terms, the same measure for `CCC(NC(C)c1ccccc1)=C1C(=O)N(C)C(=O)N(C)C1=O` (stereo not given) [SMR000043429]: 14.4 µM.
For the molecule `CN(C)c1ccnc2sc3c(=O)n(Cc4ccccc4)cnc3c12` [3-Benzyl-9-dimethylamino-3H-pyrido[3',2':4,5]thieno[3,2-d]pyrimidin-4-one], the EC50 stood at 3.37 µM.
With `CC(C)c1cc(C(=O)N2CCN(C(c3ccccc3)c3ccccc3)CC2)no1` [(4-benzhydrylpiperazin-1-yl)-(5-propan-2-yl-1,2-oxazol-3-yl)methanone], the EC50 was found to be 8.42 µM.

The same experiment, now with this note: inactive by the depositor's call.
On to `O=C(C1CC1)N1CCc2cc(S(=O)(=O)NCC3COc4ccccc4O3)ccc21` (stereo not given) [1-(cyclopropanecarbonyl)-N-(2,3-dihydro-1,4-benzodioxin-3-ylmethyl)-2,3-dihydroindole-5-sulfonamide], for which the EC50 worked out at 13.8 µM.
Still for that read-out and setting: the same measure for `CCOC(=O)Cc1csc(NC(=O)c2ccc(Br)s2)n1` [2-[2-[(5-bromothiophene-2-carbonyl)amino]thiazol-4-yl]acetic acid ethyl ester]: 16.5 µM; for `COc1ccc2ncn(-c3ccccc3)c2c1` [6-methoxy-1-phenyl-1H-1,3-benzodiazole]: 23.6 µM.
The same measure, in the same setting: next, `COc1ccccc1-c1cc(C(=O)Nc2cc(C)nn2-c2ccccc2)no1` [5-(2-methoxyphenyl)-N-(3-methyl-1-phenyl-1H-pyrazol-5-yl)isoxazole-3-carboxamide]: 57.7 µM; `CCCCOc1ccc(S(=O)(=O)n2c(C)nc3ccccc32)cc1` [1-(4-butoxyphenyl)sulfonyl-2-methyl-benzimidazole]: 28.9 µM.
On to `Cc1ccc(S(=O)(=O)n2nc(C)c(Br)c2C)c(C)c1C` [4-bromanyl-3,5-dimethyl-1-(2,3,4-trimethylphenyl)sulfonyl-pyrazole], for which the EC50 was 83.1 µM.
As for `CCNc1nc2c(c(=O)n(C)c(=O)n2C)n1Cc1ccc(Cl)cc1` [7-(4-chlorobenzyl)-8-(ethylamino)-1,3-dimethyl-xanthine], the EC50 stood at 14.4 µM.
As to `CN(CC1CCCO1)S(=O)(=O)c1ccc(C(=O)Nc2nc(-c3ccccn3)cs2)cc1` (stereo not given) [4-[methyl(2-oxolanylmethyl)sulfamoyl]-N-[4-(2-pyridinyl)-2-thiazolyl]benzamide], the EC50 was 24 µM.
On the same count and under the same terms, next, `Cc1ccccc1CS(=O)(=O)c1nnc([C@H](CC(C)C)NC(=O)OC(C)(C)C)o1` [SMR000044673]: 10.1 µM.
Still for that read-out and setting: next, `CCCn1c(CNc2ccc(Br)cc2)nc2ccccc21` [(4-bromophenyl)-[(1-propylbenzimidazol-2-yl)methyl]amine]: 12.8 µM.
As to `Cc1cccc(-c2nc(CSCC(=O)N3CCN(c4ccccn4)CC3)c(C)o2)c1` [1-[({[5-methyl-2-(3-methylphenyl)-1,3-oxazol-4-yl]methyl}thio)acetyl]-4-pyridin-2-ylpiperazine], the concentration for a half-maximal effect (EC50) worked out at 12.2 µM.
Same read-out and setting: next, `O=C(CSc1ncnc2c1oc1ccccc12)N1CCCc2ccccc21` [2-(4-benzofuro[3,2-d]pyrimidinylthio)-1-(3,4-dihydro-2H-quinolin-1-yl)ethanone]: 10.8 µM; `CCSc1nc(N2CCOCC2)c2c(c1C#N)CCCC2` [3-(ethylthio)-1-(4-morpholinyl)-5,6,7,8-tetrahydroisoquinoline-4-carbonitrile]: 30.9 µM; `CC1=CC(C)(C)Nc2ccc(OC(=O)c3cccnc3)cc21` [(2,2,4-trimethyl-1H-quinolin-6-yl) pyridine-3-carboxylate]: 11 µM.
For the molecule `CCOc1ccccc1COC(=O)c1cccc(-n2cnnn2)c1` [(2-ethoxyphenyl)methyl 3-(1,2,3,4-tetrazol-1-yl)benzoate], the EC50 turned out to be 25.8 µM.
As to `COc1ccc(-c2cc(C(=O)NC3CCCC3)no2)cc1OC` [MLS000087117], the EC50 stood at 13.7 µM.
The same measure, in the same setting: next, `CC/N=c1\sc(C(=O)NCCc2ccccc2)cc(=O)n1CC` [3-Ethyl-2-[(Z)-ethylimino]-4-oxo-3,4-dihydro-2H-[1,3]thiazine-6-carboxylic acid phenethyl-amide]: 23.1 µM; `Cc1ccc(S(=O)(=O)Nc2cccc3ncccc23)s1` [5-methyl-N-quinolin-5-ylthiophene-2-sulfonamide]: 27.6 µM; `O=C(Nc1ccc(C(F)(F)F)cc1)C1CCCN1S(=O)(=O)c1cccc2cccnc12` (stereo not given) [1-(8-quinolinylsulfonyl)-N-[4-(trifluoromethyl)phenyl]-2-pyrrolidinecarboxamide]: 10.2 µM.

Values taken from BindingDB's records for doi:10.7270/Q2ZC817P (The Scripps Research Institute Molecular Screening Center, 2007).
